Test results taken from BindingDB's records for doi:10.1021/jm00391a020 (1987).

Test: Kinetic constant for galactosyltransferase inhibition was determined

Compound | Ki [µM]
O=c1ccn(C2O[C@H](COP(=O)(O)OP(=O)(O)C3O[C@H](CO)[C@@H](O)[C@H](O)[C@H]3O)[C@@H](O)[C@H]2O)c(=O)[nH]1 (some centres not stated) | 165
O=c1ccn([C@@H]2O[C@H](COP(=O)(O)OP(=O)(O)OP(=O)(O)O)[C@@H](O)[C@H]2O)c(=O)[nH]1 [uridine 5'-(tetrahydrogen triphosphate)] | 128
